From US20180155386A1, “PROGESTERONE ANTAGONISTS” (Evestra, Inc., priority 2011, published 2018)

Legend:
[1] = biological target: T1, progesterone receptor-LBD-UAS-bla HEK 293T cells (Homo sapiens, UniProt P06401); assay: Progesterone Antagonist Screen (GeneBLAzer Beta-lactamase reporter, activated by control agonist R5020); format: cell-based; conditions: values relative to RU486, which is 100%; HEK 293T reporter cells, agonist R5020 at EC80
T1 construct: host or cells: HEK 293T
T1 sequence (P06401 679-913 limits assumed): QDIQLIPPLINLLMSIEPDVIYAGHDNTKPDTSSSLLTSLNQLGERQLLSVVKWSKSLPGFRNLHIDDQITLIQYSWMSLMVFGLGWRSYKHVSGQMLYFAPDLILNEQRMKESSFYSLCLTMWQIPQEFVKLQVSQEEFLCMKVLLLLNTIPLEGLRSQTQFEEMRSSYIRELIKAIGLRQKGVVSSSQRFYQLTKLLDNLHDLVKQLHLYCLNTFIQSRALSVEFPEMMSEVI
Procedure: Determination of the agonist/antagonist nature of the test compounds was carried out using Invitrogen's SelectScreen™ Cell-based nuclear receptor profiling service which uses the GeneBLAzer® Beta-lactamase reporter technology. Basically this assay uses a Beta-lactamase cDNA under transcriptional control of an Upstream Activator Sequence (UAS). The UAS is activated by the GAL4 transcription factor DNA binding domain (DBD), which is expressed as a fusion protein with the target receptor ligand binding domain (LBD). Upon ligand binding, the GAL4(DBD)-NR(LDB) binds to the UAS, which controls transcription of Beta-lactamase. Beta-lactamase cleaves a special engineered fluorescent substrate which results in a change in the measured fluorescence wavelength.
The generalized protocol used for the Progesterone Antagonist Screen, activated by control Agonist R5020 is as follows:
The progesterone receptor-LBD-UAS-bla HEK 293T cells are thawed and prepared as described above for the Agonist screen. 4 μL of a 10× serial dilution of control antagonist RU-486 (starting concentration, 100 nM) or test compounds are added to appropriate wells of a TC-Treated assay plate. 32 μL of cell suspension is added to the wells which is then pre-incubated at 37° C./5% CO2 in a humidified incubator with test compounds and control antagonist titration for 30 minutes. 4 μL of a 10× control agonist (see above) at the predetermined EC80 concentration is added to wells containing the control antagonist or test compounds. The plate is incubated for 16-24 hours at 37° C./5% CO2 in a humidified incubator. 8 μL of 1 μM Substrate Loading Solution is added to each well and the plate is incubated for 2 hours at room temperature. The plate is then read on a fluorescence plate reader (Tecan Safire).

[2] = tested on: human breast cancer cell line T47D; assay: In vitro antiproliferative activity in human breast cancer cell line T47D (MTT); format: cell-based; conditions: 168 h, T47D cells, 7 days after cell seeding
Procedure: Cells from frozen stock were expanded in T75 cell culture flasks. For the experiment, cells in the logarithmic growth phase (70% confluent) were cultivated for 3 day without estradiol and then washed with PBS, detached by trypsination and suspended in 5 ml of fresh RPMI-1640 medium. Cells were centrifuged for 5 min at 1000 rpm and the pellet was resuspended in RPMI-1640 medium.
Cells were seeded in 96-well plates with a density of 5000 cells/well/in 0.18 mL RPMI-1640 medium. Cells were allowed to attach for 24 h. Visual control for viability at 24 h and cell culture medium change. At this time point, compounds were added in 20 μl to the final concentration. After 3 days medium and compounds where changed again. Finally, 7 days after cell seeding, 20 μl MTT-solution was added to each well and 4 h later the formed tetrazolium salt was measured with a photometer.

[3] = tested on: nidation (implantation) sites in pregnant rats; assay: Antinidation test in rat; format: in vivo, rats (Sprague-Daley); conditions: rats with implantation sites / rats treated; 3 mg/day s.c. from day 5 of pregnancy, counted at day 9; 0/3 = full progesterone antagonist
Procedure: For every compound to be screened in rats (Sprague-Daley) 3 control rats (vehicle treated, s.c.), 3 rats treated (s.c.) with a known progestin antagonist and 3 rats treated (s.c.) with the test compound (3 mg/day) are used. Female rats will be placed with male rats for 3 to 4 days and exam the vagina for sperm plugs every morning. The presence of a sperm plug will indicate day 1 of pregnancy. Pregnant rats will be treated daily with 3 mg of the screened compound at beginning on day 5 of pregnancy. At day 9 of gestation the rats will be euthanized and nidation sites counted.

[4] = tested on: uterine weight of non-pregnant guinea pigs; assay: Uterine weights of guinea pigs; format: in vivo; conditions: 10 mg s.c. from day 10 of cycle; sacrifice day 18; untreated guinea pig 1.2 g; higher than 1.2 g indicates pure progesterone antagonistic activity
Procedure: 3 Non-pregnant guinea pigs in the luteal phase of the cycle will be treated with 10 mg of the compound subcutaneously beginning on day 10 of the cycle. Animals were sacrificed on day 18 after the start of the treatment and the uterine weights were obtained at the time of sacrifice. Comparisons will be made to onapristone-treated animals at 10 mg/animal/day s.c

[5] = tested on: progesterone receptor positive breast cancer; conditions: rat model of PR positive breast cancer; cited from earlier work

Emax [1]	SMILES	IC50 [2]	Implantation Sites [3]	Uterine Weights of Guinea Pigs Treated with antiprogestins (grams) [4]	development of new tumors [5]	tumor size [5]
91%	C[C@]12C[C@H](c3ccc(C(=O)C4CC4)cc3)C3=C4CCC(=O)C=C4CC[C@H]3[C@@H]1CC[C@@]2(O)C(F)(F)C(F)(F)F [Compound 2a, 11β-(4′-[Cyclopropylcarbonyl]phenyl)-17β-hydroxy-17-(1,1,2,2,2-pentafluoroethyl)-estra-4,9-diene-3-one]	1.2 nM	0/3	2.3 grams	–	–
2%	C[C@]12C[C@H](c3ccc(C(=O)C4CC4)cc3)C3=C4CCC(=O)C=C4CC[C@H]3[C@@H]1CC[C@@]2(O)CCCO [Compound 2c, 11β-(4′-[Cyclopropylcarbonyl]phenyl)-17β-hydroxy-17-(3-hydroxypropyl)-estra-4,9-diene-3-one]	4.6 nM	–	1.35 grams	–	–
45%	CC#C[C@]1(O)CC[C@H]2[C@@H]3CCC4=CC(=O)CCC4=C3[C@@H](c3ccc(C(=O)C4CC4)cc3)C[C@@]21C [Compound 2b, 11β-(4′-[Cyclopropylcarbonyl]phenyl)-17β-hydroxy-17-(1-propynyl)-estra-4,9-diene-3-one]	0.64 nM	–	–	–	–
48%	C=C1CCO[C@]12CCC1C3CCC4=CC(=O)CCC4=C3[C@@H](c3ccc(C(=O)C4CC4)cc3)C[C@@]12C (stereo partly drawn) [Compound 2e, 11β-(4′-[Cyclopropylcarbonyl]phenyl)-17,23-epoxy-19,24-dinor-17α-chola-4,9,20-triene-3-one]	0.37 nM	–	1.02 grams	–	–
6%	C[C@]12C[C@H](c3ccc(C(=O)C4CC4)cc3)C3=C4CCC(=O)C=C4CCC3C1CC[C@@]2(O)/C=C\CO (stereo partly drawn) [Compound 2d, 11β-(4′-[Cyclopropylcarbonyl]phenyl)-17β-hydroxy-17-(3-hydroxyprop-1(Z)-enyl)-estra-4,9-diene-3-one]	–	–	0.99 grams	–	–
190%	C[C@]12C[C@H](c3ccc(-c4cccnc4)cc3)C3=C4CCC(=O)C=C4CCC3C1CC[C@@]2(O)/C=C/C(F)(F)F (stereo partly drawn) [Compound 3a, 11β-(4′-[3-Pyridinyl]phenyl)-17β-hydroxy-17-(3,3,3-trifluoroprop-1(E)-enyl)-estra-4,9-diene-3-one]	–	0/4	0.87 grams	–	–
200%	C=CC(F)(F)[C@]1(O)CC[C@H]2[C@@H]3CCC4=CC(=O)CCC4=C3[C@@H](c3ccc(-c4cccnc4)cc3)C[C@@]21C [Compound 3b, 11β-(4′-[3-Pyridinyl]phenyl)-17β-hydroxy-17-(1,1-difluoroprop-2-enyl)-estra-4,9-diene-3-one]	–	0/4	–	–	–

The remaining lines, values behind:

SMILES	Emax [1]	IC50 [2]	Implantation Sites [3]	Uterine Weights of Guinea Pigs Treated with antiprogestins (grams) [4]	development of new tumors [5]	tumor size [5]
CCC(F)(F)[C@]1(O)CC[C@H]2[C@@H]3CCC4=CC(=O)CCC4=C3[C@@H](c3ccc(C(C)=O)cc3)C[C@@]21C [Compound 1e, 11β-(4′-Acetyl-phenyl)-17β-hydroxy-17-(1,1-difluoropropyl)-estra-4,9-diene-3-one]	191%	0.3 nM	–	–	–	–
CC(=O)c1ccc([C@H]2C[C@@]3(C)[C@@H](CC[C@@]3(O)C#CC(F)(F)F)[C@@H]3CCC4=CC(=O)CCC4=C32)cc1 [Compound 1a, 11β-(4′-Acetylphenyl)-17β-hydroxy-17-(3,3,3-trifluoro-1-propynyl)-estra-4,9-diene-3-one]	6%	17 nM	1/3	1.3 grams	–	–
COCC(=O)[C@@]1(OC(C)=O)CC[C@H]2[C@@H]3CCC4=CC(=O)CCC4=C3[C@@H](c3ccc(N(C)C)cc3)C[C@@]21C [CDB-4124, Proellex, reference compound]	–	–	0/3	1.41 grams	decrease in the development of new tumors	regression of tumor size
CC(=O)c1ccc([C@H]2C[C@@]3(C)C(CC[C@@]3(O)/C=C/C(F)(F)F)C3CCC4=CC(=O)CCC4=C32)cc1 (stereo partly drawn) [Compound 1b, 11β-(4′-Acetylphenyl)-17β-hydroxy-17-(3,3,3-trifluoroprop-1(E)-enyl)-estra-4,9-diene-3-one]	33%	0.64 nM	0/3	0.785 grams	–	–
CC#C[C@]1(O)CC[C@H]2[C@@H]3CCC4=CC(=O)CCC4=C3[C@@H](c3ccc(C(=O)c4ccc(C#N)cc4)cc3)C[C@@]21C [Compound 4, 11β-(4′-[4-Cyanobenzoyl]phenyl)-17β-hydroxy-17-(1-propynyl)-estra-4,9-diene-3-one]	38%	–	–	–	–	–
CN(C)c1ccc([C@H]2C[C@]3(C)[C@@H](CC[C@]3(O)CCCO)[C@@H]3CCC4=CC(=O)CCC4=C32)cc1 [ZK98299, reference compound]	–	–	2/3	1.07 grams	–	–
CC(=O)c1ccc([C@H]2C[C@@]3(C)[C@@H](CC[C@@]3(O)CC(F)=C(F)F)[C@@H]3CCC4=CC(=O)CCC4=C32)cc1 [Compound 1c, 11β-(4′-Acetylphenyl)-17β-hydroxy-17-(2,3,3-trifluoroprop-2-enyl)-estra-4,9-diene-3-one]	21%	3.1 nM	0/3	1.8 grams	–	–
C=CC(F)(F)[C@]1(O)CC[C@H]2[C@@H]3CCC4=CC(=O)CCC4=C3[C@@H](c3ccc(C(C)=O)cc3)C[C@@]21C [Compound 1d, 11β-(4′-Acetylphenyl)-17β-hydroxy-17-(1,1-difluoroprop-2-enyl)-estra-4,9-diene-3-one]	119%	0.3 nM	–	–	–	–
